Results reported in patent publication US20230092890A1, “1, 3, 4-Oxadiazole derivative compounds as histone deacetylase 6 inhibitor, and the pharmaceutical composition comprising the same” (Chong Kun Dang Pharmaceutical Corp., priority 2019, published 2023).

Columns and labels:
[1] = biological target: T1, HDAC6 human recombinant (Homo sapiens, UniProt Q9UBN7); test: HDAC enzyme activity inhibition (in vitro), HDAC6 assay; assay type: biochemical; conditions: samples at 0.1, 1, 10, 100 and 1000 nM; 37° C. 60 minutes; fluorescence Ex 390, Em 460; read-out: HDAC6 IC50
T1 construct: purchased Calbiochem 382180
T1 sequence (Q9UBN7 1-1215): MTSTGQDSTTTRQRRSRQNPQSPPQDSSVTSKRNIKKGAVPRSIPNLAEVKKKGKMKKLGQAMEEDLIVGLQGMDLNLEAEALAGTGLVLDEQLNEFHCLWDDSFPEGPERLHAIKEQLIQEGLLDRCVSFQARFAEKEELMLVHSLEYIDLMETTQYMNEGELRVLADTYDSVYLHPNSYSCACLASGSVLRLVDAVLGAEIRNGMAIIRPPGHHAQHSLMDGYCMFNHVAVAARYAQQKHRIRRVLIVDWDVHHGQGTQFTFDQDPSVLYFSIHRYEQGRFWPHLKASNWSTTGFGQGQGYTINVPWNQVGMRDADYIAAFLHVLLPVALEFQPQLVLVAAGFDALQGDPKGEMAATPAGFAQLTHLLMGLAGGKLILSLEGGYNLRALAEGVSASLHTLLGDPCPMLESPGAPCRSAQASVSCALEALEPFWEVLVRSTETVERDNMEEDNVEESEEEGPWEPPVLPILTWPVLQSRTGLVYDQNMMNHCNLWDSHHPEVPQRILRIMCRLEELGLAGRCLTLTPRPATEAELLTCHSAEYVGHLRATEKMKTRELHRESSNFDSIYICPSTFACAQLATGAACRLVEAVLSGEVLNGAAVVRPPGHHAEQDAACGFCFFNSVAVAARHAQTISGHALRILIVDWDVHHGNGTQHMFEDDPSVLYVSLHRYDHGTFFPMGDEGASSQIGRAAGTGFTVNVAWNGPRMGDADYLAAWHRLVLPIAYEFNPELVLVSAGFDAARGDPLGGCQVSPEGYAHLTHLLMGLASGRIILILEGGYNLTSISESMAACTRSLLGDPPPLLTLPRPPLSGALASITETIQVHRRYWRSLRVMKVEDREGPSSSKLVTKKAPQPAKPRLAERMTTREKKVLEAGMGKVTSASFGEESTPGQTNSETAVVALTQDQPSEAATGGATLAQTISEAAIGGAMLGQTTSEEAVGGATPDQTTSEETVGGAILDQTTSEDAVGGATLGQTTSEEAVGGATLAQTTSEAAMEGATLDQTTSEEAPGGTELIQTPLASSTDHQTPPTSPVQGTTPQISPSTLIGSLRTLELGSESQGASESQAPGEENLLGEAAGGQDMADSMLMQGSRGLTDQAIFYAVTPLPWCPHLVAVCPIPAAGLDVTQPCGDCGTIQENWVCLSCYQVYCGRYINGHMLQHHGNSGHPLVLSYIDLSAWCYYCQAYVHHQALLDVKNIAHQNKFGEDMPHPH
Outline: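 HDAC6 human recombinant enzyme with fluorimetric substrate; […]. Reaction 60 min at 37° C, then developer 30 min at 37° C; fluorescence read at Ex 390/Em 460.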

[2] = biological target: T2, HDAC1 (Homo sapiens, UniProt Q13547); test: HDAC enzyme activity inhibition (in vitro), HDAC1 Fluorimetric Drug Discovery Assay Kit; assay type: biochemical; conditions: samples at 100, 1000 and 10000 nM; 37° C. 60 minutes; fluorescence Ex 390, Em 460; read-out: HDAC1 IC50
T2 construct: purchased Enzolifesciences BML-AK511
Outline: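 Compounds at 100, 1000, 10000 nM (HDAC1) or 0.1, 1, 10, 100, 1000 nM (HDAC6); 37° C, 60 min; developer, 37° C, 30 min; fluorescence Ex 390/Em 460.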

T2 sequence (Q13547 whole entry): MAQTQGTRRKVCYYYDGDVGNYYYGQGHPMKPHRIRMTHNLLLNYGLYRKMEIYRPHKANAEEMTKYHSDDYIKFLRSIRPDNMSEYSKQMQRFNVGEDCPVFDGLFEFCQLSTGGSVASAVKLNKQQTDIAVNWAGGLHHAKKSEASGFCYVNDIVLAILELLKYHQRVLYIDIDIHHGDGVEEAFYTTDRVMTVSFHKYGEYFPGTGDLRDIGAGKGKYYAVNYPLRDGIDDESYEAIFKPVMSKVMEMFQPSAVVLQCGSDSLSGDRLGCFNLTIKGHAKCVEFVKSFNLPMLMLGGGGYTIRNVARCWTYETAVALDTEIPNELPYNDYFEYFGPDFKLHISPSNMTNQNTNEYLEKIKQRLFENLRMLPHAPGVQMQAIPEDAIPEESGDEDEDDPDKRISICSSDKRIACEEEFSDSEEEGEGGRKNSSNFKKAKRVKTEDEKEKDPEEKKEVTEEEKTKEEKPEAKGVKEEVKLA

IC50 [1] | IC50 [2] | Compound
91 nM | > 10000 nM | Cc1ccc(-c2ccc3c(c2)n(C2CCN(C)CC2)c(=O)n3Cc2ccc(-c3nnc(C(F)F)o3)cc2F)o1 [Compound 163, 1-(4-(5-(difluoromethyl)-1,3,4-oxadiazole-2-yl)-2-fluorobenzyl)-5-(5-methylfuran-2-yl)-3-(1-methylpiperidine-4-yl)-1,3-dihydro-2H-benzo[d]imidazole-2-one]
18 nM | > 10000 nM | O=c1oc2cc(-c3ccnc(N4CCNCC4)c3)c(F)cc2n1Cc1ccc(-c2nnc(C(F)F)o2)cn1 [Compound 368, 3-((5-(5-(difluoromethyl)-1,3,4-oxadiazole-2-yl)pyridine-2-yl)methyl)-5-fluoro-6-(2-(piperazine-1-yl)pyridine-4-yl)benzo[d]oxazole-2(3H)-one]
110 nM | > 10000 nM | O=c1n(Cc2ccc(-c3nnc(C(F)F)o3)cc2F)c2ccccc2n1C1CC2(COC2)C1 [Compound 27, 1-(4-(5-(difluoromethyl)-1,3,4-oxadiazole-2-yl)-2-fluorobenzyl)-3-(2-oxaspiro[3.3]heptane-6-yl)-1,3-dihydro-2H-benzo[d]imidazole-2-one]
46 nM | > 10000 nM | O=c1oc2cc(Cl)ccc2n1Cc1ccc(-c2nnc(C(F)F)o2)cn1 [Compound 265, 6-chloro-3-((5-(5-(difluoromethyl)-1,3,4-oxadiazole-2-yl)pyridine-2-yl)methyl)benzo[d]oxazole-2(3H)-one]
202 nM | > 10000 nM | CC(=O)N1CCC(n2c(=O)n(Cc3ccc(-c4nnc(C(F)F)o4)cc3F)c3ncccc32)CC1 [Compound 185, 1-(1-acetylpiperidine-4-yl)-3-(4-(5-(difluoromethyl)-1,3,4-oxadiazole-2-yl)-2-fluorobenzyl)-1,3-dihydro-2H-imidazo[4,5-b]pyridine-2-one]
36 nM | > 10000 nM | O=c1n(Cc2ccc(-c3nnc(C(F)F)o3)cn2)c2cc(F)ccc2n1C1CCN(C2CCSCC2)CC1 [Compound 57, 3-((5-(5-(difluoromethyl)-1,3,4-oxadiazole-2-yl)pyridine-2-yl)methyl)-5-fluoro-1-(1-(tetrahydro-2H-thiopyran-4-yl)piperidine-4-yl)-1,3-dihydro-2H-benzo[d]imidazole-2-one]
58 nM | > 10000 nM | CS(=O)(=O)N1CCC(n2c(=O)n(Cc3ccc(-c4nnc(C(F)F)o4)cn3)c3ccccc32)CC1 [Compound 206, 1-((5-(5-(difluoromethyl)-1,3,4-oxadiazole-2-yl)pyridine-2-yl)methyl)-3-(1-(methylsulfonyl)piperidine-4-yl)-1,3-dihydro-2H-benzo[d]imidazole-2-one]
121 nM | > 10000 nM | O=c1n(Cc2ccc(-c3nnc(C(F)F)o3)cn2)c2ccc(F)cc2n1C1CCN(C2CCC2)CC1 [Compound 45, 3-(1-cyclobutylpiperidine-4-yl)-1-((5-(5-(difluoromethyl)-1,3,4-oxadiazole-2-yl)pyridine-2-yl)methyl)-5-fluoro-1,3-dihydro-2H-benzo[d]imidazole-2-one]
16 nM | > 10000 nM | O=c1sc2cc(Br)ccc2n1Cc1ccc(-c2nnc(C(F)F)o2)cn1 [Compound 230, 6-bromo-3-((5-(5-(difluoromethyl)-1,3,4-oxadiazole-2-yl)pyridine-2-yl)methyl)benzo[d]thiazole-2(3H)-one]
23 nM | > 10000 nM | O=c1n(Cc2ccc(-c3nnc(C(F)F)o3)cn2)c2cc(Cl)c(Cl)cc2n1C1CCN(C2COC2)CC1 [Compound 82, 5,6-dichloro-1-((5-(5-(difluoromethyl)-1,3,4-oxadiazole-2-yl)pyridine-2-yl)methyl)-3-(1-(oxetan-3-yl)piperidine-4-yl)-1,3-dihydro-2H-benzo[d]imidazole-2-one]
6 nM | > 10000 nM | O=c1n(Cc2ccc(-c3nnc(C(F)F)o3)cn2)c2cc(F)c(-c3cccc4[nH]ccc34)cc2n1C1CN(C2COC2)C1 [Compound 310, 1-((5-(5-(difluoromethyl)-1,3,4-oxadiazole-2-yl)pyridine-2-yl)methyl)-6-fluoro-5-(1H-indole-4-yl)-3-(1-(oxetan-3-yl)azetidine-3-yl)-1,3-dihydro-2H-benzo[d]imidazole-2-one]
31 nM | > 10000 nM | CN1CCC(n2c(=O)n(Cc3ccc(-c4nnc(C(F)F)o4)cn3)c3c(F)cccc32)CC1 [Compound 76, 3-((5-(5-(difluoromethyl)-1,3,4-oxadiazole-2-yl)pyridine-2-yl)methyl)-4-fluoro-1-(1-methylpiperidine-4-yl)-1,3-dihydro-2H-benzo[d]imidazole-2-one]
1310 nM | > 10000 nM | CN1CCC(n2c(=O)n(Cc3ccc(-c4nnc(C(F)F)o4)cc3F)c3cc(-c4cccc(F)c4)ccc32)CC1 [Compound 120, 3-(4-(5-(difluoromethyl)-1,3,4-oxadiazole-2-yl)-2-fluorobenzyl)-5-(3-fluorophenyl)-1-(1-methylpiperidine-4-yl)-1,3-dihydro-2H-benzo[d]imidazole-2-one]
27 nM | > 10000 nM | CN1CCC(n2cc(-c3cc4oc(=O)n(Cc5ccc(-c6nnc(C(F)F)o6)cn5)c4cc3F)cn2)CC1 [Compound 360, 3-((5-(5-(difluoromethyl)-1,3,4-oxadiazole-2-yl)pyridine-2-yl)methyl)-5-fluoro-6-(1-(1-methylpiperidine-4-yl)-1H-pyrazole-4-yl)benzo[d]oxazole-2(3H)-one]
236 nM | > 10000 nM | CN1CCC(n2c(=O)n(Cc3ccc(-c4nnc(C(F)F)o4)cc3F)c3ccccc32)CC1 [Compound 1, 1-(4-(5-(difluoromethyl)-1,3,4-oxadiazole-2-yl)-2-fluorobenzyl)-3-(1-methylpiperidine-4-yl)-1,3-dihydro-2H-benzo[d]imidazole-2-one]
39 nM | > 10000 nM | O=c1n(Cc2ccc(-c3nnc(C(F)F)o3)cc2)c2ccc(Cl)cc2n1C1CCN(C2COC2)CC1 [Compound 100, 5-chloro-1-(4-(5-(difluoromethyl)-1,3,4-oxadiazole-2-yl)benzyl)-3-(1-(oxetan-3-yl)piperidine-4-yl)-1,3-dihydro-2H-benzo[d]imidazole-2-one]
75 nM | > 10000 nM | CC(C)N1CCC(c2cc3oc(=O)n(Cc4ccc(-c5nnc(C(F)F)o5)cn4)c3cc2F)CC1 [Compound 335, 3-((5-(5-(difluoromethyl)-1,3,4-oxadiazole-2-yl)pyridine-2-yl)methyl)-5-fluoro-6-(1-isopropylpiperidine-4-yl)benzo[d]oxazole-2(3H)-one]
70 nM | > 10000 nM | O=c1n(Cc2ccc(-c3nnc(C(F)F)o3)cn2)c2cc(F)c(N3CCN(CC(F)(F)F)CC3)cc2n1C1COC1 [Compound 325]
109 nM | > 10000 nM | CN1CC(n2c(=O)n(Cc3ccc(-c4nnc(C(F)F)o4)cc3F)c3ccccc32)C1 [Compound 22, 1-(4-(5-(difluoromethyl)-1,3,4-oxadiazole-2-yl)-2-fluorobenzyl)-3-(1-methylazetidine-3-yl)-1,3-dihydro-2H-benzo[d]imidazole-2-one]
285 nM | > 10000 nM | CN1CCC(n2c(=O)n(Cc3ccc(-c4nnc(C(F)F)o4)cc3F)c3ccccc32)C1 (stereo not shown) [Compound 20, 1-(4-(5-(difluoromethyl)-1,3,4-oxadiazole-2-yl)-2-fluorobenzyl)-3-(1-methylpyrrolidine-3-yl)-1,3-dihydro-2H-benzo[d]imidazole-2-one]
